Data taken from ChEMBL document CHEMBL6074652, “New rhodol-sulforaphane conjugates as innovative isothiocyanate-based cytotoxic agents for cancer cells” (Eur J Med Chem, 2024).
The source made the active and inactive calls. The calls are words filed in the database; no cut-off is given here.

Assays:
[1] = system: OCI-AML-3; assay: Cytotoxicity against human OCI-AML-3 cells assessed as reduction in cell viability at 0 to 8 uM incubated for 24 hrs by trypan blue staining based MTT assay; format: functional; conditions: dose 0-8 µM
[2] = system: Jurkat; assay: Induction of DNA damage in human Jurkat cells assessed as single strand breaks at 8 uM by measuring nuclear diffusion factor measured after 3 hrs by fast halo based fluorescence microscopic analysis relative to control; format: functional
[3] = system: Jurkat; assay: Induction of DNA damage in human Jurkat cells at 4 uM assessed as nuclear diffusion factor incubated for 1 hr in presence of rotenone by fast halo based fluorescence microscopic analysis; format: functional, cell-based
[4] = system: TK6; assay: Cytotoxicity against human TK6 cells assessed as reduction in cell viability incubated for 24 hrs by trypan blue staining based MTT assay; format: functional; conditions: dose 0-6 µM
[5] = system: Mitochondrial membrane; assay: Induction of mitochondrial membrane potential loss in human Jurkat cells at 2 to 6 uM by flow cytometric analysis; conditions: dose 2-6 µM
[6] = system: Jurkat; assay: Induction of apoptosis in human Jurkat cells assessed as increase in caspase-8 activity incubated for 2 hrs by colorimetric protease assay; format: functional, cell-based; conditions: dose 2-6 µM
[7] = system: TK6; assay: Induction of DNA damage in human TK6 cells assessed as micronuclei formation at 2 uM incubated for 4 hrs by May-Grunwald/Giemsa staining based microscopic analysis; format: functional, cell-based
[8] = system: Jurkat; assay: Cytotoxicity against human Jurkat cells assessed as cell growth inhibition under 4 degreeC incubated for 72 hrs by trypan blue staining based MTT assay; format: functional
[9] = system: TK6; assay: Induction of DNA damage in human TK6 cells assessed as micronuclei formation incubated for 4 hrs by May-Grunwald/Giemsa staining based microscopic analysis; format: functional, cell-based; conditions: dose 1-4 µM
[10] = system: RPMI-1788; assay: Cytotoxicity against human RPMI-1788 cells assessed as reduction in cell viability incubated for 24 hrs by trypan blue staining based MTT assay; format: functional; conditions: dose 0-8 µM
[11] = system: Jurkat; assay: Cytotoxicity against human Jurkat cells assessed as inhibition of cell viability incubated for 72 hrs by trypan blue staining based MTT assay; format: functional
[12] = system: U-937; assay: Cytotoxicity against human U-937 cells assessed as reduction in cell viability incubated for 24 hrs by trypan blue staining based MTT assay; format: functional; conditions: dose 0-8 µM
[13] = system: Jurkat; assay: Cytotoxicity against human Jurkat cells at 4 uM in presence of iron-chelator o-phenanthroline by trypan blue staining based MTT assay; format: functional, cell-based
[14] = system: Jurkat; assay: Induction of DNA damage in human Jurkat cells assessed as fold increase in p53 expression at 4 uM by flow cytometric analysis; format: functional
[15] = system: TK6; assay: Cytotoxicity against human TK6 cells assessed as reduction in cell viability at 0 to 6 uM incubated for 24 hrs by trypan blue staining based MTT assay; format: functional; conditions: dose 0-6 µM
[16] = system: TK6; assay: Induction of DNA damage in human TK6 cells assessed as accumulation of single strand breaks at 2 to 8 uM by measuring nuclear diffusion factor by fast halo based fluorescence microscopic analysis; format: functional, cell-based; conditions: dose 2-8 µM
[17] = system: OCI-AML-3; assay: Cytotoxicity against human OCI-AML-3 cells assessed as reduction in cell viability incubated for 24 hrs by trypan blue staining based MTT assay; format: functional; conditions: dose 0-8 µM
[18] = system: TK6; assay: Induction of DNA damage in human TK6 cells assessed as micronuclei formation at >4 uM incubated for 4 hrs by May-Grunwald/Giemsa staining based microscopic analysis; format: functional, cell-based
[19] = system: Jurkat; assay: Induction of DNA damage in human Jurkat cells measured at 1 hr; format: functional, cell-based; conditions: dose 6.0 µM
[20] = system: MV4-11; assay: Cytotoxicity against human MV4-11 cells assessed as reduction in cell viability at 0 to 8 uM incubated for 24 hrs by trypan blue staining based MTT assay; format: functional; conditions: dose 0-8 µM
[21] = system: U-937; assay: Cytotoxicity against human U-937 cells assessed as reduction in cell viability at 0 to 8 uM incubated for 24 hrs by trypan blue staining based MTT assay; format: functional; conditions: dose 0-8 µM
[22] = system: TK6; assay: Induction of DNA damage in human TK6 cells assessed as micronuclei formation at 4 uM by measuring 1000 binucleated cells incubated for 4 hrs by May-Grunwald/Giemsa staining based microscopic analysis; format: functional
[23] = system: Jurkat; assay: Induction of DNA damage in human Jurkat cells assessed as fold increase in H2AX phosphorylation expression at 4 to 8 uM incubated for 30 mins by flow cytometric analysis; format: functional; conditions: dose 4-8 µM, 0.5 h
[24] = system: Jurkat; assay: Induction of DNA damage in human Jurkat cells assessed as accumulation of single strand breaks at 2 to 8 uM by measuring nuclear diffusion factor by fast halo based fluorescence microscopic analysis; format: functional, cell-based; conditions: dose 2-8 µM
[25] = system: Jurkat; assay: Cytotoxicity against human Jurkat cells at 4 uM incubated for 1 hr in presence of rotenone by trypan blue staining based MTT assay; format: functional, cell-based
[26] = system: MOLM-13; assay: Cytotoxicity against human MOLM-13 cells assessed as reduction in cell viability at 0 to 8 uM incubated for 24 hrs by trypan blue staining based MTT assay; format: functional; conditions: dose 0-8 µM
[27] = system: MV4-11; assay: Cytotoxicity against human MV4-11 cells assessed as reduction in cell viability incubated for 24 hrs by trypan blue staining based MTT assay; format: functional; conditions: dose 0-8 µM
[28] = system: Jurkat; assay: Induction of DNA damage in human Jurkat cells at 4 uM assessed as nuclear diffusion factor incubated for 1 hr in presence of iron-chelator o-phenanthroline by fast halo based fluorescence microscopic analysis; format: functional, cell-based
[29] = system: Jurkat; assay: Cytotoxicity against human Jurkat cells assessed as cell growth inhibition under 37 degreeC incubated for 72 hrs by trypan blue staining based MTT assay; format: functional
[30] = system: Jurkat; assay: Induction of DNA damage in human Jurkat cells assessed as increase in accumulation of single strand breaks by measuring nuclear diffusion factor by fast halo based fluorescence microscopic analysis; format: functional, cell-based; conditions: dose 0-8 µM
[31] = system: MOLM-13; assay: Cytotoxicity against human MOLM-13 cells assessed as reduction in cell viability incubated for 24 hrs by trypan blue staining based MTT assay; format: functional; conditions: dose 0-8 µM
[32] = system: Jurkat; assay: Induction of apoptosis in human Jurkat cells assessed as increase in caspase-3 activity incubated for 2 hrs by colorimetric protease assay; format: functional, cell-based; conditions: dose 2-6 µM
[33] = system: Jurkat; assay: Induction of DNA damage in human Jurkat cells assessed as accumulation of single strand breaks at 2 to 6 uM under 4 degreeC incubated for 1 hr by measuring nuclear diffusion factor by fast halo based fluorescence microscopic analysis; format: functional, cell-based; conditions: dose 2-6 µM
[34] = system: RPMI-1788; assay: Cytotoxicity against human RPMI-1788 cells assessed as reduction in cell viability at 0 to 8 uM incubated for 24 hrs by trypan blue staining based MTT assay; format: functional; conditions: dose 0-8 µM
[35] = system: Jurkat; assay: Induction of apoptosis in human Jurkat cells assessed as cleavage of PARP1 at 4 to 6 uM by flow cytometric analysis; format: functional, cell-based; conditions: dose 4-6 µM
[36] = system: Jurkat; assay: Cytotoxicity against human Jurkat cells assessed as inhibition of cell viability < 32 uM incubated for 72 hrs by trypan blue staining based MTT assay; format: functional
[37] = system: Jurkat; assay: Induction of DNA damage in human Jurkat cells assessed as single strand breaks at <32 uM by measuring nuclear diffusion factor by fast halo based fluorescence microscopic analysis; format: functional, cell-based
[38] = system: Jurkat; assay: Cytotoxicity against human Jurkat cells assessed as cell survival rate at 30 uM incubated for 72 hrs by trypan blue staining based MTT assay; conditions: read-out: Survival
[39] = system: Jurkat; assay: Induction of apoptosis in human Jurkat cells assessed as appearance of micronuclei pretreated with compound for 1 hr and measured after 5 hrs by uranyl acetate and lead citrate staining based transmission electron microscopic analysis; format: functional, cell-based; conditions: time 6.0 hrs
[40] = system: Jurkat; assay: Induction of apoptosis in human Jurkat cells assessed as appearance of chromatin condensation pretreated with compound for 1 hr and measured after 5 hrs by uranyl acetate and lead citrate staining based transmission electron microscopic analysis; format: functional, cell-based; conditions: time 6.0 hrs
[41] = system: Jurkat; assay: Cytotoxicity against human Jurkat cells at 6 uM in presence of iron-chelator o-phenanthroline by trypan blue staining based MTT assay; format: functional, cell-based
[42] = system: Jurkat; assay: Induction of DNA damage in human Jurkat cells at 6 uM assessed as nuclear diffusion factor incubated for 1 hr in presence of rotenone by fast halo based fluorescence microscopic analysis; format: functional, cell-based
[43] = system: Jurkat; assay: Cytotoxicity against human Jurkat cells at 6 uM incubated for 1 hr in presence of rotenone by trypan blue staining based MTT assay; format: functional, cell-based
[44] = system: Jurkat; assay: Induction of apoptosis in human Jurkat cells assessed as appearance of secondary necrosis pretreated with compound for 1 hr and measured after 5 hrs by uranyl acetate and lead citrate staining based transmission electron microscopic analysis; format: functional, cell-based; conditions: time 6.0 hrs
[45] = system: Jurkat; assay: Induction of apoptosis in human Jurkat cells assessed as appearance of cup-shaped masses pretreated with compound for 1 hr and measured after 5 hrs by uranyl acetate and lead citrate staining based transmission electron microscopic analysis; format: functional, cell-based; conditions: time 6.0 hrs
[46] = system: Jurkat; assay: Induction of DNA damage in human Jurkat cells at 6 uM assessed as nuclear diffusion factor incubated for 1 hr in presence of iron-chelator o-phenanthroline by fast halo based fluorescence microscopic analysis; format: functional, cell-based

Row | Activity [5] | SMILES | Activity [1] | Activity [2] | Activity [4] | Activity [6] | IC50 [8] | Activity [9] | Activity [10] | Activity [11] | IC50 [11] | Activity [12] | fold change (FC) [14] | Activity [15] | Activity [16] | Activity [17] | Activity [18] | Activity [19] | Activity [20] | Activity [21] | Activity [22] | other results
1 | Active | Cc1ccccc1-c1c2ccc(=O)cc-2oc2cc(OCCOCCN=C=S)ccc12 | Active | 48.7% | Dose-dependent-effect | Dose-dependent-effect | 2.54 µM | Dose-dependent-effect | Dose-dependent-effect | Dose-dependent-effect | 3.65 µM | Dose-dependent-effect | 70.4 | Active | Active | Dose-dependent-effect | Active | Dose-dependent-effect | Active | Active | 19.59 | Activity [3]: Active; Activity [7]: Active; Activity [13]: Active; fold change (FC) [23]: 2; Activity [24]: Active; Activity [25]: Active; Activity [26]: Active; Activity [27]: Dose-dependent-effect; Activity [28]: Active; IC50 [29]: 3.65 µM; Activity [30]: Dose-dependent-effect; Activity [31]: Dose-dependent-effect; Activity [32]: Dose-dependent-effect; Activity [33]: Active; Activity [34]: Active; Activity [35]: Active
2 | – | Cc1ccccc1-c1c2ccc(=O)cc-2oc2cc(OCCCCCCN)ccc12 | – | – | – | – | – | – | – | – | – | – | – | – | – | – | – | – | – | – | – | Activity [36]: inactive; Activity [37]: inactive
3 | – | C[S+]([O-])CCCCN=C=S (centres undefined) [SULFORAPHANE] | – | – | – | – | – | – | – | – | 29.7 µM | – | – | – | – | – | – | – | – | – | – | viability at 30 µM [38]: 66.2%
4 | Active | Cc1ccccc1-c1c2ccc(=O)cc-2oc2cc(OCCCCCCN=C=S)ccc12 | Active | 59.2% | Dose-dependent-effect | Dose-dependent-effect | 3.99 µM | Dose-dependent-effect | Dose-dependent-effect | Dose-dependent-effect | 5.96 µM | Dose-dependent-effect | 45.5 | Active | Active | Dose-dependent-effect | Active | Dose-dependent-effect | Active | Active | 13.07 | Activity [39]: Active; Activity [40]: Active; Activity [41]: Active; Activity [42]: Active; fold change (FC) [23]: 2; Activity [24]: Active; Activity [26]: Active; Activity [27]: Dose-dependent-effect; IC50 [29]: 5.96 µM; Activity [43]: Active; Activity [30]: Dose-dependent-effect; Activity [44]: Active; Activity [31]: Dose-dependent-effect; Activity [32]: Dose-dependent-effect; Activity [33]: Active; Activity [45]: Active; Activity [34]: Active; Activity [46]: Active; Activity [35]: Active
